Test results from patent US20090088380A1, “GHRH ANALOGS AND THERAPEUTIC USES THEREOF” (priority 2007, published 2009).
Where “and” joins values, the source holds several entries; their conditions need not be identical. Equal values may be shown once. Non-standard residues stand in square brackets, D forms with d. Residues, ends and D or L forms follow the SMILES beside them.

Experiments:
Type in all cases: in vivo, human
[1] = tested on: malnourished subjects with CKD; assay: Phase II CKD: DEXA scan
Procedure: The DEXA scan was performed by an appropriately qualified person and in accordance with the agreed guidelines. Mean body composition values (fat free mass, fat mass and bone mineral content) were recorded for the total body and for defined regional areas (arms, legs, trunk), if possible.
Mean body composition values (total tissue, fat mass, lean tissue and bone mineral content) were recorded for the total body and defined regional areas (arms, legs, trunk) if possible. FFM was derived for total body and for regional areas.

[2] = tested on: malnourished subjects with CKD; assay: Phase II CKD: biochemical markers of nutritional and metabolic state (plasma proteins, glucose control, lipids)
Procedure: Plasma proteins were measured as markers for renal disease and malnourishment. Blood samples were analysed locally. Albumin (g/L) were measured at screening, baseline and on Day 28. Blood samples for measurement of pre-albumin (g/L) were collected at baseline, Day 14 and Day 28. Transferrin (g/L) was measured at baseline, Day 7, Day 14 and Day 28.
HbA1c (%) was measured at screening and Day 28 as a marker for long-term glucose control. Fasting insulin (μunits/mL) and fasting glucose (mmol/L) were measured at baseline, Day 7, Day 14 and Day 28 as markers for short-term glucose control.
Fasting triglyceride (mmol/L) and fasting cholesterol (mmol/L) were measured at baseline, Day 7, Day 14 and Day 28 as markers for lipid metabolism.

[3] = tested on: malnourished subjects with CKD; assay: Phase II CKD: 24-h urinary electrolytes; conditions: for Calcium excretion: mean (SD) / Calcium/Creatinine ratio: median / EER Calcium: mean (SD) / EER Chloride: mean (SD) / EER Phosphate: mean (SD) / EER Potassium: mean (SD) / EER Sodium: mean (SD) / EFER Calcium: mean (SD) / EFER Chloride: mean (SD) / EFER Phosphate: mean (SD) / EFER Potassium: mean (SD) / EFER Sodium: mean (SD) / Fractional Pi reabsorption rate Pi/GFR: mean (SD) / Sodium excretion: mean (SD): ITT population
Procedure: Subjects collected 24-hour urine samples at screening, baseline (Days 0 to 1) and Days 28 to 29. All of the samples were analysed for creatinine and urea clearance (mL/min). The samples collected at baseline and on Day 28 were also analysed for proteinuria (Coumassie method), PNA, sodium, potassium, chloride, calcium and phosphate. GFR was calculated using the Cockcroft-Gault formula: Electrolyte excretion rates were calculated as follows: ? [formula] Electrolyte fractional excretion rates were calculated as follows: [formula]

[4] = tested on: malnourished subjects with CKD; assay: Phase II CKD: adverse events; conditions: 28 days
Text: The number and nature of AEs was consistent with subjects with chronic renal failure. Although the number of AEs reported by subjects in the GHRH(1-29)NH2 synthetic analog group was higher than the number reported by subjects in the placebo group (70 vs. 58), there was no clear pattern to distinguish the treatments from each other in safety terms. This might be partly due to the relatively low number of subjects in the study but, overall, the 2 groups were generally balanced with respect to the nature and incidence of AEs.

[5] = ITT, Day 28, listed as GHRH(1-29)NH2 synthetic analog
[6] = GHRH vs placebo, changes from baseline to Day 28
[7] = GHRH vs placebo, ANCOVA, assuming log-normal distribution

## CC[C@H](C)[C@H](NC(=O)[C@H](C)NC(=O)[C@H](CC(=O)O)NC(=O)[C@@H](C)NC(=O)[C@@H](N)Cc1ccc(O)cc1)C(=O)N[C@@H](Cc1ccccc1)C(=O)N[C@H](C(=O)N[C@@H](CC(N)=O)C(=O)N[C@@H](CO)C(=O)N[C@H](Cc1ccc(O)cc1)C(=O)N[C@@H](CCCNC(=N)N)C(=O)N[C@@H](CCCCN)C(=O)N[C@H](C(=O)N[C@@H](CC(C)C)C(=O)N[C@H](C)C(=O)N[C@@H](CCC(N)=O)C(=O)N[C@@H](CC(C)C)C(=O)N[C@@H](CO)C(=O)N[C@@H](C)C(=O)N[C@@H](CCCNC(=N)N)C(=O)N[C@@H](CCCCN)C(=O)N[C@@H](CCCCN)C(=O)N[C@@H](CC(C)C)C(=O)N[C@@H](CCC(N)=O)C(=O)N[C@@H](CC(=O)O)C(=O)N[C@H](C(=O)N[C@@H](CCSC)C(=O)N[C@@H](CO)C(=O)N[C@@H](CCCNC(=N)N)C(N)=O)[C@@H](C)CC)C(C)C)[C@@H](C)O [GHRH analog #5, [D-Ala^2, D-Tyr^10, D-Ala^15, Lys^22] hGHRH(1-29)-NH2] (H-Y[dA]DAIFTNS[dY]RKVL[dA]QLSARKKLQDIMSR-NH2)
[1]; Day 28
  Mean fat mass (%) as % of the mean in placebo group: 83%
  Mean fat mass (kg) as % of the mean in placebo group: 84%
[1]; ITT, Baseline
  Arms - bone mineral content: mean (SD): 0.317 (0.109) kg
  Arms - fat mass: mean (SD): 2.22 (1.65) kg
  Legs - bone mineral content: mean (SD): 0.791 (0.273) kg
  Legs - fat mass: mean (SD): 5.26 (2.86) kg
  Total body - bone mineral content (%): mean (SD): 3.63 (0.68) %
  Total body - bone mineral content (kg): mean (SD): 2.236 (0.656) kg
  Total body - fat free mass (%): mean (SD): 72.11 (14.25) %
  Total body - fat free mass (kg): mean (SD): 43.83 (10.90) kg
  Total body - fat mass (%): mean (SD): 27.89 (14.25) %
  Total body - fat mass (kg): mean (SD): 17.10 (9.48) kg
  Trunk - bone mineral content: mean (SD): 0.699 (0.239) kg
  Trunk - fat mass: mean (SD): 8.52 (4.73) kg
[1]; ITT, Baseline, listed as GHRH(1-29)NH2 synthetic analog
  Trunk - bone mineral content: mean (SD): 0.699 kg
[1]; ITT, Day 28
  Arms - bone mineral content: mean (SD): 0.300 (0.106) kg
  Arms - fat mass: mean (SD): 2.01 (1.25) kg
  Legs - bone mineral content: mean (SD): 0.784 (0.281) kg
  Legs - fat mass: mean (SD): 5.31 (3.05) kg
  Total body - bone mineral content (%): mean (SD): 3.58 (0.69) %
  Total body - bone mineral content (kg): mean (SD): 2.225 (0.674) kg
  Total body - fat free mass (%): mean (SD): 73.16 (14.31) %
  Total body - fat free mass (kg): mean (SD): 44.85 (11.61) kg
  Total body - fat mass (%): mean (SD): 26.84 (14.31) %
  Total body - fat mass (kg): mean (SD): 16.51 (9.51) kg
  Trunk - bone mineral content: mean (SD): 0.718 (0.253) kg
  Trunk - fat mass: mean (SD): 8.17 (4.91) kg
[1]; [5]
  Trunk - bone mineral content: mean (SD): 0.718 kg
[1]; ITT, Day 28, vs placebo
  Total body - fat free mass (kg): ratio of means; higher than placebo: 2.94 kg
  Total body - fat mass (%): ratio of means: 0.83
  Total body - fat mass (kg): ratio of means: 0.84
[1]; ITT, Day 28, vs placebo, listed as GHRH(1-29)NH2 synthetic analog
  Total body - fat free mass (kg): ratio of means; higher than placebo: 2.9 kg
[1]; day 28
  Decrease from baseline in median FM: 0.4 kg
  FM lost on average in arms: 0.22 kg
  FM lost on average in trunk: 0.30 kg
  Increase from baseline in median FFM: 1.6 kg
  Mean FFM gained, arms: 0.15 kg
  Mean FFM gained, legs: 1.03 kg
  Mean FFM gained, total body: 1.83 kg
  Mean FFM gained, trunk: 0.59 kg
  Mean total FM lost: 0.51 kg
[2]; ITT
  Fasting cholesterol: mean difference (GHRH-Placebo): −0.58
[2]; ITT, Baseline
  Albumin: median: 41.0 g/L
  Fasting glucose: median: 5.1 mmol/L
  Fasting insulin: median: 8.4 μ units/mL
  Fasting triglycerides: median: 1.40 mmol/L
  Pre-albumin: mean (SD): 0.216 (0.088) g/L
  Transferrin: mean (SD): 2.202 (0.315) g/L
[2]; ITT, Day 28
  Albumin: median: 40.4 g/L
  Fasting glucose: median: 5.4 mmol/L
  Fasting insulin: median: 12.1 μ units/mL
  Fasting triglycerides: median: 1.98 mmol/L
  HbA1c: median: 5.606%
  Pre-albumin: mean (SD): 0.201 (0.103) g/L
  Transferrin: mean (SD): 2.383 (0.370) g/L
[2]; [5]
  Fasting cholesterol: median: 4.69 mmol/L
[2]; ITT, Screening
  HbA1c: median: 5.516%
[2]; ITT, vs placebo
  Fasting glucose: ratio of means: 1.030
  Fasting insulin: ratio of means: 1.79 and 1.788
  Fasting triglycerides: ratio of means: 1.199
  Pre-albumin: comparison or ratio of means: −0.093
  Transferrin: comparison or ratio of means: 0.06
[2]; day 7
  Fasting insulin: median: 14.2 μunits/ml
[2]; day 14
  Fasting insulin: median: 15.5 μunits/ml
[2]; in vivo
  Reduction of mean cholesterol in almost all patients (10/12): up to 10%
[3]; Baseline
  Calcium excretion: mean (SD): 0.988 (0.916) mmol/m^2/24 h
  Calcium/Creatinine ratio: median: 0.145
  EER Calcium: mean (SD): 0.027 (0.027) mmol/kg/24 h
  EER Chloride: mean (SD): 2.213 (0.963) mmol/kg/24 h
  EER Phosphate: mean (SD): 0.328 (0.220) mmol/kg/24 h
  EER Potassium: mean (SD): 0.839 (0.332) mmol/kg/24 h
  EER Sodium: mean (SD): 2.428 (1.134) mmol/kg/24 h
  EFER Calcium: mean (SD): 1.933 (1.164) %
  EFER Chloride: mean (SD): 3.636 (1.945) %
  EFER Phosphate: mean (SD): 35.882 (14.172) %
  EFER Potassium: mean (SD): 28.325 (13.618) %
  EFER Sodium: mean (SD): 3.068 (1.658) %
  Fractional Pi reabsorption rate Pi/GFR: mean (SD): 0.861 (0.291) mmol/ml
  Sodium excretion: mean (SD): 89.90 (42.10) mmol/m^2/24 h
[3]; Day 28
  Calcium excretion: mean (SD): 1.295 (1.231) mmol/m^2/24 h
  Calcium/Creatinine ratio: median: 0.195
  EER Calcium: mean (SD): 0.036 (0.036) mmol/kg/24 h
  EER Chloride: mean (SD): 2.277 (1.028) mmol/kg/24 h
  EER Phosphate: mean (SD): 0.273 (0.129) mmol/kg/24 h
  EER Potassium: mean (SD): 0.656 (0.315) mmol/kg/24 h
  EER Sodium: mean (SD): 2.624 (1.020) mmol/kg/24 h
  EFER Calcium: mean (SD): 2.743 (2.157) %
  EFER Chloride: mean (SD): 4.156 (2.541) %
  EFER Phosphate: mean (SD): 35.968 (12.979) %
  EFER Potassium: mean (SD): 26.766 (18.120) %
  EFER Sodium: mean (SD): 3.359 (1.156) %
  Fractional Pi reabsorption rate Pi/GFR: mean (SD): 0.829 (0.211) mmol/ml
  Sodium excretion: mean (SD): 96.70 (37.30) mmol/m^2/24 h
[3]; [6]
  Calcium excretion: adjusted difference: −0.10 mmol/m^2/24 h
  EER Calcium: adjusted difference: −0.002 mmol/kg/24 h
  EER Chloride: adjusted difference: −0.136 mmol/kg/24 h
  EER Phosphate: adjusted difference: 0.020 mmol/kg/24 h
  EER Potassium: adjusted difference: −0.086 mmol/kg/24 h
  EER Sodium: adjusted difference: −0.020 mmol/kg/24 h
  EFER Calcium: adjusted difference: −0.48%
  EFER Chloride: adjusted difference: −1.13%
  EFER Phosphate: adjusted difference: −3.64%
  EFER Potassium: adjusted difference: −7.93%
  Fractional Pi reabsorption rate Pi/GFR: adjusted difference: -0.00006 mmol/mL
  Sodium excretion: adjusted difference: −1.18 mmol/m^2/24 h
[3]; [7]
  Calcium/Creatinine ratio: ratio (ratio of means): 0.82
  EFER Sodium: ratio (ratio of means): 0.79
[3]; in vivo
  Calcium excretion: mean difference between groups: −0.10 mmol/m^2/24 h
  Calcium:creatinine ratio: ratio of means: 0.82
  EER chloride: mean difference between groups: −0.136 mmol/kg/24 h
  EER phosphate: mean difference between groups: 0.020 mmol/kg/24 h
  EER potassium: mean difference between groups: −0.086 mmol/kg/24 h
  EER sodium: mean difference between groups: −0.020 mmol/kg/24 h
  EFER chloride: mean difference between groups: −1.13%
  EFER phosphate: mean difference between groups: −3.64%
  EFER potassium: mean difference between groups: −7.93%
  EFER sodium: ratio of means: 0.79
  Electrolyte excretion rate (EER) calcium: mean difference between groups in change baseline to Day 28: −0.002 mmol/kg/24 h
  Electrolyte fractional excretion rate (EFER) calcium: mean difference between groups: −0.48%
  Fractional Pi reabsorption rate (Pi/GFR): mean difference between groups: -0.000059 mmol/mL
  Sodium excretion: mean difference between groups: −1.18 mmol/m^2/24 h
[3]; in vivo, listed as GHRH(1-29)NH2 synthetic analog
  Fractional Pi reabsorption rate (Pi/GFR): mean difference between groups: -0.00006 mmol/mL
[4]
  Number of AEs reported: 70
